Source: publication PMC9867241, “Antioxidant and Cytotoxic Activity of New Polyphenolic Derivatives of Quinazolin-4(3H)-one: Synthesis and In Vitro Activities Evaluation” (Pharmaceutics, 2022)
pIC50: −log10 of the molar value. In brackets after ≈: the same amount, converted by molar mass.

Columns and labels:
[1] = tested on: A549 (lung adenocarcinoma) cells; experiment: Cytotoxicity, Alamar blue assay, A549 cells; type: cell-based; settings: Homo sapiens, 24 h exposure
Source text: (§1) Normal human foreskin (BJ) fibroblasts and two types of cancer cells, namely A549 (lung adenocarcinoma) and LNCaP (prostate carcinoma) purchased from American Type Culture Collection (Manassas, VA, USA), were used in the experiments. Each cell line was maintained in a different culture medium, depending on the metabolic necessities of the cells. BJ cells were maintained in Dulbecco’s modified Eagle’s medium (DMEM) with low glucose. A549 cells were maintained in DMEM with high glucose […], while LNCaP cells were grown in Roswell Park Memorial Institute (RPMI) 1640 medium with high glucose (5 g/L). All media used were supplemented with 10% fetal bovine serum (FBS) and were refreshed every two days. Cells were used in experiments or subcultured when they reached 70–80% confluence.
(§2) In 100 µL in 96-well plates, a number of 30,000 LNCaP cells, 15,000 A549 cells, and 7500 normal (BJ) cells were seeded. Because the cells have different sizes and volumes, the purpose of the different seedings was to achieve a confluency of 70–80% after 24 h. All types of cells were further exposed to the synthesized compounds (5a–d and 6a–d) for 24 h, at a concentration ranging from 12.5 to 100 µg/mL. Post-exposure, the media were removed, and the cells were washed with phosphate buffer saline (PBS). Their viability was evaluated using Alamar blue (AB) assay as previously described. Briefly, the cells were incubated with a 200 µM resazurin solution for 4 h. Using a Synergy 2 multi-mode microplate reader, we measured the fluorescence. The measurement was performed at λexcitation = 530/25 nm; λemission = 590/35 nm. We conducted the experiments using three biological replicates, each one including 6 technical replicates. As negative controls (NC), cells exposed to culture medium containing 0.2% DMSO were used. Compared to the NC (100%), the results were expressed as relative values. We used IC50 values for the potency evaluation, and calculated them for each cell line, using the dose-effect curves obtained by fitting the experimental data with a 4-parameter logistic curve.
(§3) Mean values ± standard deviation (SD) values of at least three biological replicates were used to calculate experimental data. One-way analysis of variance (ANOVA) with a post hoc Holm–Sidak test was used to statistically examine the data. Using SigmaPlot 11.0 software (Systat, Software Inc., Chicago, IL, USA), we performed the graphical display and data analysis. From a statistical point of view, the results were considered different, at values of p < 0.05.

[2] = tested on: LNCaP (prostate carcinoma) cells; experiment: Cytotoxicity, Alamar blue assay, LNCaP cells; type: cell-based; settings: Homo sapiens, 24 h exposure
Source text: as §1, §2, §3

[3] = tested on: normal human foreskin fibroblasts (BJ); experiment: Cytotoxicity, Alamar blue assay, BJ cells; type: cell-based; settings: Homo sapiens, Fibroblast; 24 h exposure, Alamar blue
Source text: as §1, §2, §3

[4] = ABTS˙+ radical scavenging assay
Description: (§4) The stock solutions (1 mg/mL) of the tested compounds and the controls were obtained, by dissolving the substances in dimethyl sulfoxide (DMSO). Using Jasco V-530, an UV-VIS spectrophotometer (Jasco International Co., Ltd., Tokyo, Japan), we performed the colorimetric determinations in low-volume single-use 10 mm width cuvettes.
(§5) The assays were performed in triplicate and the results are presented as averages for each assay.

[5] = DPPH˙ radical scavenging assay
Description: as §4, §5
The DPPH˙ radical scavenging assay is based on the transfer of one hydrogen from the analyzed compound to the violet stable free radical DPPH˙ (2,2-diphenyl-1-picrylhydrazyl), as we convert it into a yellow compound. The absorbance of the reagent mixed with samples presented inversely proportional values to the amount of DPPH˙ neutralized. The absorbance of the reagent was measured at λ = 517 nm, according to our previous reports. The assay was made in the presence of various concentrations of samples. The used protocol is based on the report of Brand-Williams et al..

[6] = Fe^2+ chelation assay (ferrozine competition)
Description: In the protocol used for evaluating the Fe^2+ chelating ability of the compounds, the absorbances of the solutions were determined at λ = 562 nm, against a blank sample. The method was adapted from the initial report of Benzie and Strain et al., which was previously reported by our group. Using Equation (5), we calculated the iron chelation capacities of the 5a–d and 6a–d compounds:(5) iron chelation (%)=control absorbance−sample absorbance/control absorbance×100
The chelating capacity of the tested compounds of Fe^2+ was evaluated based on their competition for Fe^2+ with ferrozine.

[7] = Cu^2+ chelation assay (murexide competition)
Source text: With murexide as a chromophoric chelator, we performed the protocol followed for the evaluation of Cu^2+ chelating activities of the compounds using an adaptation of the method presented by Cesari et al. and Wu et al.. Using Equation (6), we calculated the copper chelation capacities of the 5a–d and 6a–d compounds:(6) copper chelation (%)=(A485/A520)control−(A485/A520)sample/(A485/A520)control×100
The evaluation of the Cu^2+ chelation activity of compounds was made based on the competition for Cu^2+ with murexide. The chelating activity of compounds for the cupric ions found in the current assay is significant for the pyrogallol derivatives, being quite close to EDTA-Na2.

[8] = NO˙ radical scavenging assay (Griess reaction); settings: PBS pH 7.4, sodium nitroprusside
Description: The scavenging of the NO˙ radical was performed by applying previously reported protocols. The in vitro protocol describes the decomposition of sodium nitroprusside in phosphate buffered saline (PBS) at pH = 7.4. The NO˙ radicals would be involved in a Griess reaction if they were not captured by the tested compounds. This reaction results from the formation of an azo dye, with maximum absorption at 546 nm. This azo dye is formed from sulfanilic acid and naphthyl ethylenediamine dichloride.

pIC50 [4]	pIC50 [5]	IC50 (DPPH˙ scavenging) [5]	Structure (SMILES)	% of ABTS˙^+ Scavenging ([4]; 0.83 µg/mL)	% of ABTS˙^+ Scavenging ([4]; 1.67 µg/mL)	% of ABTS˙^+ Scavenging ([4]; 3.33 µg/mL)	% of ABTS˙^+ Scavenging ([4]; 4.99 µg/mL)	% of ABTS˙^+ Scavenging ([4]; 6.66 µg/mL)	% of ABTS˙^+ Scavenging ([4]; 9.99 µg/mL)	% of ABTS˙^+ Scavenging ([4]; 13.32 µg/mL)	% of DPPH˙ Scavenging ([5]; 1.25 µg/mL)	% of DPPH˙ Scavenging ([5]; 2.5 µg/mL)	% of DPPH˙ Scavenging ([5]; 3.75 µg/mL)	% of DPPH˙ Scavenging ([5]; 5 µg/mL)	% of DPPH˙ Scavenging ([5]; 7.5 µg/mL)	% of DPPH˙ Scavenging ([5]; 10 µg/mL)	% of DPPH˙ Scavenging ([5]; 12.5 µg/mL)	% of DPPH˙ Scavenging ([5]; 15 µg/mL)	further results
–	–	–	COc1cccc2c1C(=O)c1c(O)c3c(c(O)c1C2=O)C[C@@](O)(C(=O)CO)C[C@@H]3O[C@H]1C[C@H](N)[C@H](O)[C@H](C)O1 [Doxorubicin, reference compound]	–	–	–	–	–	–	–	–	–	–	–	–	–	–	–	IC50 [1]: 0.54 µg/mL; IC50 [2]: 0.74 µg/mL; IC50 [3]: > 7.5 µg/mL
4.73	4.73	4.68 µg/mL (≈ 18.7 µM)	Cc1c(C)c2c(c(C)c1O)CCC(C)(C(=O)O)O2 (stereo not shown) [Trolox, reference compound]	38.66%	53.16%	66.54%	94.57%	+ (+ represents more than 95%)	+ (+ represents more than 95%)	+ (+ represents more than 95%)	17.01%	28.53%	40.42%	53.87%	75.85%	94.85%	+ (+ represents more than 95%)	+ (+ represents more than 95%)	–
4.94	4.79	2.83 µg/mL (≈ 16.1 µM)	O=C1O[C@H]([C@@H](O)CO)C(O)=C1O [Ascorbic acid, reference compound]	60.97%	73.24%	87.73%	+ (+ represents more than 95%)	+ (+ represents more than 95%)	+ (+ represents more than 95%)	+ (+ represents more than 95%)	35.11%	47.45%	55.71%	64.21%	79.16%	94.39%	+ (+ represents more than 95%)	+ (+ represents more than 95%)	–
–	–	–	O=C([O-])CN(CCN(CC(=O)[O-])CC(=O)O)CC(=O)O.[Na+].[Na+] [EDTA-Na2, reference compound]	–	–	–	–	–	–	–	–	–	–	–	–	–	–	–	Ferrous ions Chelation Capacity (%) ([6]; 17.70 µg/mL): 1.32%; Ferrous ions Chelation Capacity (%) ([6]; 20.59 µg/mL): 20.59%; Ferrous ions Chelation Capacity (%) ([6]; 29.41 µg/mL): 42.89%; Ferrous ions Chelation Capacity (%) ([6]; 44.11 µg/mL): 95.10%; Ferrous ions Chelation Capacity (%) ([6]; 58.82 µg/mL): + (+ represents more than 95%); Ferrous ions Chelation Capacity (%) ([6]; 88.23 µg/mL): + (+ represents more than 95%); Ferrous ions Chelation Capacity (%) ([6]; 117.64 µg/mL): + (+ represents more than 95%); Ferrous ions Chelation Capacity (%) ([6]; 257.46 µg/mL): + (+ represents more than 95%); Ferrous ions Chelation Capacity (%) ([6]; 343.28 µg/mL): + (+ represents more than 95%); Cupric ions Chelation Capacity (%) ([7]; 3.36 µg/mL): 10.39%; Cupric ions Chelation Capacity (%) ([7]; 8.40 µg/mL): 22.68%; Cupric ions Chelation Capacity (%) ([7]; 16.80 µg/mL): 44.51%
–	–	–	O=C(O)c1cc(O)ccc1O [Gentisic acid, reference compound]	–	–	–	–	–	–	–	–	–	–	–	–	–	–	–	% of NO˙ Scavenged [8]: 48.14%
